Data on one compound can be found in patent EP4471048A1, “PEPTIDE INHIBITORS OF INTERLEUKIN-23 RECEPTOR” (Zealand Pharma A/S, priority 2023, dated 2024).

Molecules are shown by their SMILES.

Data set [1] can be described thus: Peptide stability in simulated gastric fluid (SGF). It counts as in vitro ADME. To be noted: pig, simulated gastric fluid (SGF) with porcine pepsin (3.2 g/L), 37 °C, porcine pepsin; for remaining at 4 h, 10 µM: pH 1.2, 4 h. The essentials: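 Peptide incubated at 37 °C with gentle shaking in SGF (NaCl, pH 1.2). Samples centrifuged, diluted and analysed by LC-HRMS; percent remaining at each timepoint from absolute peak areas relative to time zero, with 4 h as the reference point.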

The nature of data set [2]: Peptide stability in simulated intestinal fluid (SIF). To be noted: 37 °C, porcine pancreatin. It counts as in vitro ADME. The essentials: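 Peptides were incubated at 37 °C with gentle shaking in pH 6.8 potassium phosphate SIF containing porcine pancreatin (10 g/L). Supernatants were analysed by LC-HRMS. Percent remaining at each timepoint, including 4 h, was calculated relative to time zero from absolute peak areas.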

Data set [3] concerns the target IL-23 mediated signalling (Homo sapiens, UniProt Q5VWK5). Briefly: Functional inhibition of IL-23 mediated STAT3 signalling (phospho-STAT3 MSD) in DB cells. It counts as cell-based. To be noted: DB cells, hIL-23 at EC80. In outline: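 DB cells preincubated with inhibitor 15 min at 37 °C, then stimulated 90 min with EC80 human IL-23; lysate phospho-STAT3 measured by MSD electrochemiluminescence. Signal normalized to IL-23-alone and buffer controls; IC50 and maximal % inhibition from 4-parameter logistic fit.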

IL-23 mediated signalling, sequence (Q5VWK5 24-629 limits assumed): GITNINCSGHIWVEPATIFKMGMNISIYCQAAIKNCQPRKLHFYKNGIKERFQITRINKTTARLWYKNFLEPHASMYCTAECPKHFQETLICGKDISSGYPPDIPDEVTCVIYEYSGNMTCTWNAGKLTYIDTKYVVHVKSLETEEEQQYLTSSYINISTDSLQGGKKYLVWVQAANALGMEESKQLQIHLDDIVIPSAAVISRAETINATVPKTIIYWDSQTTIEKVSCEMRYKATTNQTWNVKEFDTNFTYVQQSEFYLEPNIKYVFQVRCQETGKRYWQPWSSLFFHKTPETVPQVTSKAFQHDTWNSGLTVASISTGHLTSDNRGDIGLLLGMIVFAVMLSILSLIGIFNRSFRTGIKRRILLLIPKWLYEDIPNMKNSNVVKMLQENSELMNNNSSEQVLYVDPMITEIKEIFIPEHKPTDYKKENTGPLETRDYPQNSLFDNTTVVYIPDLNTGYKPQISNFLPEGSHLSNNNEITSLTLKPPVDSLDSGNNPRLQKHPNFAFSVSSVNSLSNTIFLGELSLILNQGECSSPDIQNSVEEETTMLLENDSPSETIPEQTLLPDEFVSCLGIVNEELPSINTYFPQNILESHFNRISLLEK

Usually IC50 stands for the concentration at which inhibition is half-maximal. For `CC(C)C[C@]1(C)NC(=O)[C@H](Cc2ccc3ccccc3c2)NC(=O)[C@H](Cc2ccc(OCCN)cc2)NC(=O)[C@@H]2CCC(=O)N[C@H](CCCCNC(=O)CC[C@@H](C(=O)N[C@@H](CCN)C(=O)N[C@@H](Cc3cccnc3)C(N)=O)NC1=O)C(=O)N[C@@H]([C@@H](C)O)C(=O)N[C@@H](C(C)C)C(=O)N[C@@H](Cc1c[nH]c3ccccc13)C(=O)N[C@@H](CCC(N)=O)C(=O)N2` [Compound 1, [{d}K](1c)(6c)^†TVWQE(6c)[Y(2-aminoethoxy)][2-Nal][2-Me-Leu]E(1c)[Dab][3-(3-Pyridyl)-Ala]-[NH2]], the remaining at 1 h, 10 µM in data set [1] (pH 1.2, 10 µM, pH 1.2, 1 h, read-out: SGF (% remaining 1 h)) was 104%; in data set [2] (pig, pH 6.8, 1 h) it was 23%. Also, the remaining at 4 h, 10 µM in data set [1] (pH 1.2, 10 µM, read-out: SGF (% remaining 4 h)) was 97%; in data set [1] (pH 1.2, SAR tables, % peptide remaining, 10 µM, read-out: SGF (% after 4 h)) it was 104%; in data set [2] (pig, SAR tables, % peptide remaining, pH 6.8, 4 h, read-out: SIF (% after 4 h)) it was 0%. The “SIF (% remaining 4 h)” value in data set [2] (10 µM, pH 6.8, 4 h) is 0%. Further, the half-inhibitory concentration (IC50) in data set [3] (SAR tables 2-1 to 2-7, read-out: IC50 (pSTAT3)) worked out at 0.23 nM. In data set [3] (Table 3-2, maximal inhibitory response, read-out: hIL-23 (pSTAT3) antagonist % inhibition), the Emax came out at 102%.
